Results on eight compounds are retold here after ChEMBL document CHEMBL1201862, “PubChem BioAssay data set” (2004).

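Protocol summary: plate cells (96-well), add compound at 5 concentrations, incubate 48 h, interpolate endpoints linearly. GI50 marks 50% less growth.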 Calls of active or inactive are those of the source. No stated cut-off is given here; in the data, active = GI50 up to about 1.1 µM and inactive = higher. Bounds are passed on as bounds.

Some test systems named below: NCI/ADR-RES; ACHN; MOLT-4; HCT-15; A498; NCI-H460; MDA-MB-435; COLO 205; SK-MEL-28; SW-620; SK-MEL-2; CAKI-1; SF-539; 786-0; SK-OV-3; Hs-578T; SF-268; SN12C; UO-31; TK-10.
Experiment in all cases: NCI-60 cell line screen, 48 h

For the compound `COc1ccc(CC2NC(=O)/C=C/CC(C(C)C3OC3c3ccccc3)OC(=O)C(CC(C)C)OC(=O)C(C)CNC2=O)cc1Cl` (stereo unspecified), the GI50 in the assay on NCI/ADR-RES is 4.81e-05 µM (active); in the assay with ACHN it was 2.81e-05 µM (active); in the assay with MOLT-4, 3.4e-05 µM (active); with HCT-15, 1.06e-05 µM; in the assay with A498, < 1e-05 µM (active); in the assay on NCI-H460, < 1e-05 µM (active). Further, the GI50 in the assay with MDA-MB-435 was < 1e-05 µM (active); in the assay with COLO 205, < 1e-05 µM (active); in the assay with SK-MEL-28, 2.43e-05 µM (active); in the assay with SW-620, 1.36e-05 µM (active); in the assay on SK-MEL-2, 0.001 µM (active); in the assay with CAKI-1, 1.01e-05 µM (active). In addition, the GI50 with SF-539 was 1.34e-05 µM (active); in the assay with 786-0, < 1e-05 µM (active); in the assay with SK-OV-3, 6.68e-05 µM (active); with Hs-578T, 1.78e-05 µM (active); in the assay on SF-268, 4.55e-05 µM (active); in the assay with SN12C, 2.38e-05 µM (active).
Turning to `O=[N+]([O-])C(/C(Cl)=C(/Cl)N1CCOCC1)=C1\Nc2ccccc2O1`, the GI50 with NCI/ADR-RES was 83.2 µM (inactive); in the assay with ACHN it was > 100 µM (inactive); in the assay with MOLT-4, > 100 µM (inactive); in the assay on HCT-15, more than 100 µM; in the assay with A498, > 100 µM (inactive); in the assay with NCI-H460, 12.7 µM (inactive). Also, the GI50 with MDA-MB-435, in the assay on COLO 205, in the assay on SK-MEL-28, with SW-620, with SK-MEL-2 and in the assay with UO-31 was > 100 µM (inactive) each time. The GI50 in the assay on CAKI-1 was > 100 µM (inactive); in the assay with SF-539, > 100 µM (inactive); in the assay on 786-0, > 100 µM (inactive); in the assay on SK-OV-3, > 100 µM (inactive); in the assay with Hs-578T, > 100 µM (inactive); with SF-268, 28.9 µM (inactive). The GI50 with SN12C was > 100 µM (inactive).
Turning to `CCN(CC)Cc1ccccc1CC(=O)N1c2ccccc2C(=O)Nc2cccnc21`, the GI50 with NCI/ADR-RES was 59.6 µM (inactive); with TK-10, > 100 µM (inactive); in the assay on ACHN, > 100 µM (inactive); in the assay on MOLT-4 it was 46.7 µM (inactive); in the assay with HCT-15, more than 100 µM; in the assay on A498, > 100 µM (inactive). The GI50 with NCI-H460 was > 100 µM (inactive); with MDA-MB-435, > 100 µM (inactive); with COLO 205 it was 86.1 µM (inactive); with SK-MEL-28, > 100 µM (inactive); with SW-620 it was > 100 µM (inactive); in the assay with SK-MEL-2 it was > 100 µM (inactive). For the same compound, the GI50 in the assay with CAKI-1 is > 100 µM (inactive); in the assay on SF-539 it was > 100 µM (inactive); with 786-0, 62.2 µM (inactive); with SK-OV-3 it was > 100 µM (inactive); with Hs-578T it was > 100 µM (inactive); in the assay with SF-268 it was > 100 µM (inactive). Moreover, the GI50 with SN12C was > 100 µM (inactive).
As for `CC/C(N)=N\NC(=O)OC(C)(C)C`, the GI50 is > 100 µM (inactive) in the assay on NCI/ADR-RES; > 100 µM (inactive) with TK-10; > 100 µM (inactive) in the assay on ACHN; > 100 µM (inactive) in the assay with MOLT-4; more than 100 µM in the assay with HCT-15; > 100 µM (inactive) in the assay with A498. Further, the GI50 in the assay with MDA-MB-435, in the assay with COLO 205, in the assay with SK-MEL-28, with SW-620, in the assay with SK-MEL-2 and in the assay on UO-31 was > 100 µM (inactive) each time. The GI50 in the assay on CAKI-1, in the assay on SF-539, with 786-0, in the assay on SK-OV-3, in the assay with Hs-578T and in the assay on SF-268 was > 100 µM (inactive) in each case. Also, the GI50 with SN12C is > 100 µM (inactive).
For the compound `COc1cc2c(c(O)c1OC)C(=O)C1CCC(=O)N1C2c1cccc2ccccc12` (stereo unspecified), the GI50 was 41.2 µM (inactive) in the assay with NCI/ADR-RES; 28.9 µM (inactive) with ACHN; 21.4 µM (inactive) with MOLT-4; 41.3 µM in the assay on HCT-15; > 100 µM (inactive) in the assay on A498; 32.3 µM (inactive) in the assay with NCI-H460. In addition, the GI50 in the assay with MDA-MB-435 was 44.5 µM (inactive); in the assay with COLO 205, 15.4 µM (inactive); with SK-MEL-28, 73.6 µM (inactive); in the assay on SW-620 it was 39.7 µM (inactive); with SK-MEL-2 it was 50.7 µM (inactive); in the assay on UO-31, 31.3 µM (inactive). For the same compound, the GI50 was 85.1 µM (inactive) with CAKI-1; 41.5 µM (inactive) in the assay with SF-539; > 100 µM (inactive) in the assay on 786-0; 18.7 µM (inactive) with SK-OV-3; 82.6 µM (inactive) in the assay on Hs-578T; 57.8 µM (inactive) with SF-268. In addition, in the assay with SN12C, the GI50 is 77.4 µM (inactive).
Consider `N#CC1=C(S)N(C2OC(CO)C(O)C(O)C2O)C(c2ccccc2)=CC1c1ccccc1` (stereo unspecified), for which the GI50 with NCI/ADR-RES was > 100 µM (inactive); in the assay on TK-10, > 100 µM (inactive); with ACHN, 62.1 µM (inactive); in the assay on MOLT-4, 29.8 µM (inactive); in the assay with HCT-15, 18.8 µM; with A498 it was 59.3 µM (inactive). For the same compound, the GI50 with NCI-H460 is 37.6 µM (inactive); in the assay with MDA-MB-435, 39.9 µM (inactive); in the assay with COLO 205, 44.2 µM (inactive); in the assay with SK-MEL-28 it was 45 µM (inactive); in the assay on SW-620, 5.66 µM (inactive); with SK-MEL-2, 6.53 µM (inactive). The GI50 in the assay with UO-31 was > 100 µM (inactive); in the assay with CAKI-1, > 100 µM (inactive); with SF-539 it was 24.7 µM (inactive); with 786-0, 37.9 µM (inactive); in the assay on Hs-578T it was 41.5 µM (inactive); with SF-268 it was 56.5 µM (inactive). For the same compound, in the assay with SN12C, the GI50 was 72.4 µM (inactive).
Turning to `Cc1cn(C2CC(O)C(Cn3nncc3Cn3nc(Br)c(=O)[nH]c3=O)O2)c(=O)[nH]c1=O` (stereo unspecified), the GI50 with NCI/ADR-RES is > 100 µM (inactive); with TK-10, > 100 µM (inactive); in the assay on ACHN, > 100 µM (inactive); in the assay with MOLT-4, > 100 µM (inactive); in the assay with HCT-15, more than 100 µM; in the assay on A498 it was > 100 µM (inactive). Moreover, the GI50 in the assay on MDA-MB-435, in the assay with COLO 205, in the assay with SK-MEL-28, in the assay on SW-620, in the assay with SK-MEL-2 and with UO-31 was > 100 µM (inactive) each time. The GI50 with CAKI-1, in the assay with SF-539, in the assay on 786-0, with SK-OV-3, with Hs-578T and in the assay with SF-268 was > 100 µM (inactive) each time. Moreover, the GI50 with SN12C was > 100 µM (inactive).
As to `C1CCN2CC34CC(CC5CCCN(C6CCCC3N6)C54)C2C1` (stereo unspecified), the GI50 in the assay on NCI/ADR-RES was > 100 µM (inactive); in the assay with TK-10 it was > 100 µM (inactive); with ACHN, > 100 µM (inactive); in the assay on MOLT-4, > 100 µM (inactive); in the assay on HCT-15, more than 100 µM; with A498 it was > 100 µM (inactive). For the same compound, the GI50 with NCI-H460, with MDA-MB-435, with COLO 205, with SK-MEL-28, in the assay with SW-620 and in the assay on SK-MEL-2 was > 100 µM (inactive) in each case. For the same compound, the GI50 in the assay on CAKI-1 was > 100 µM (inactive); with SF-539 it was > 100 µM (inactive); in the assay on 786-0 it was 84.7 µM (inactive); in the assay on SK-OV-3 it was > 100 µM (inactive); in the assay with Hs-578T it was > 100 µM (inactive); in the assay on SF-268, > 100 µM (inactive). Also, the GI50 in the assay on SN12C was > 100 µM (inactive).
